Experimental data reported in ChEMBL document CHEMBL1147711, “Tetrazole thioacetanilides: potent non-nucleoside inhibitors of WT HIV reverse transcriptase and its K103N mutant” (Bioorg Med Chem Lett, 2006).

Key:
[1] = biological target: Human immunodeficiency virus type 1 reverse transcriptase (Human immunodeficiency virus 1, UniProt Q72547); experiment: Inhibition of HIV1 wild type Reverse Transcriptase
[2] = tested on: Human immunodeficiency virus type 1 reverse transcriptase (Human immunodeficiency virus 1), Q72547 [UNDEFINED MUTATION]; experiment: Ratio of K103N mutant IC50 to wild type Reverse Transcriptase IC50
[3] = tested on: Human immunodeficiency virus 1; experiment: Antiviral activity against HIV1 in presence of 10% FBS; assay type: functional; conditions: read-out: CIC95
[4] = tested on: Human immunodeficiency virus 1; experiment: Antiviral activity against HIV1 in presence of 50% NHS; assay type: functional; conditions: read-out: CIC95
[5] = Oral bioavailability in rat at 3 mg/kg, iv and po; assay type: ADME, organism-based; conditions: in vivo

SMILES | IC50 [1] [nM] | Ratio [2] | IC95 [3] [nM] | IC95 [4] [nM] | bioavailability [5] [%]
Cc1cc(C)c(-n2nnnc2SCC(=O)Nc2ccccc2Cl)c(C)c1 | 5 | 3 |  |  | 
Cc1cc(C)c(-n2nnnc2SCC(=O)Nc2ccc(OCCCN(C)C)cc2Cl)c(C)c1 | 13 | 5 | 62 | 62 | 
Cc1cccc(-n2nnnc2SCC(=O)Nc2ccccc2[N+](=O)[O-])c1C | 18 | 1 | 63 | 250 | 
Cc1cc(C)c(-n2nnnc2SCC(=O)Nc2c(Cl)cccc2Cl)c(C)c1 | > 5000 |  | > 5000 | > 5000 | 
Cc1c(Cl)cccc1-n1nnnc1SCC(=O)Nc1ccccc1[N+](=O)[O-] | 3 | 3 | 8 | 31 | 
Cc1ccc(-n2nnnc2SCC(=O)Nc2ccccc2[N+](=O)[O-])c(Br)c1 | 3 | 3 | 8 | 62 | 
Cc1cc(C)c(-n2nnnc2SCC(=O)Nc2ccc(S(N)(=O)=O)cc2)c(C)c1 | 1250 |  | 1250 | > 5000 | 
Cc1cc(C)c(-n2nnnc2SCC(=O)Nc2ccc([N+](=O)[O-])cc2Cl)c(C)c1 | 22 | 5 | 78 | 1250 | 
Cc1cc(C)c(-n2nnnc2SCC(=O)Nc2ccc(C(N)=O)cc2Cl)c(C)c1 | 3 | 2 | 8 | 16 | 
Cc1cc(C)c(-n2nnnc2SCC(=O)Nc2cccc([N+](=O)[O-])c2)c(C)c1 | 200 |  | > 5000 |  | 
Cc1cc(C)c(-n2nnnc2SCC(=O)Nc2ccc(C(N)=O)cc2C)c(C)c1 | 55 | 1 | 31 | 62 | 
Cc1cc(C)c(-n2nnnc2SCC(=O)Nc2ccccc2[N+](=O)[O-])c(C)c1 | 3 | 3 | 11 | 90 | 0
Cc1cc(C)c(-n2nnnc2SCC(=O)Nc2ccc([N+](=O)[O-])cc2)c(C)c1 | > 5000 |  | > 5000 | > 5000 | 
NS(=O)(=O)c1ccc(NC(=O)CSc2nnnn2-c2cccc(Cl)c2Cl)c(Cl)c1 | 9 | 1 | 62 | 250 | 
O=C(CSc1nnnn1-c1c(Cl)cccc1Cl)Nc1ccccc1[N+](=O)[O-] | 4 | 1 | 15 | 62 | 
Cc1cc(C)c(-n2nnnc2SCC(=O)Nc2ccc(C(=O)NCCCN(C)C)cc2Cl)c(C)c1 | 5 | 2 | 8 | 16 | 
Cc1cc(C)c(-n2nnnc2SCC(=O)Nc2ccc(Cl)cc2[N+](=O)[O-])c(C)c1 | 4 | 3 | 31 | 400 | 
O=C(CSc1nnnn1-c1cccc(Cl)c1Cl)Nc1ccccc1[N+](=O)[O-] | 12 | 1 | 78 | 125 | 
Cc1cc(C)c(-n2nnnc2SCC(=O)Nc2ccccc2I)c(C)c1 | 31 | 3 | 312 | 1250 | 
O=C(CSc1nnnn1-c1cc(Cl)ccc1Cl)Nc1ccccc1[N+](=O)[O-] | 4 | 1 | 31 | 200 | 
Cc1cc(C)c(-n2nnnc2SCC(=O)Nc2ccc(S(N)(=O)=O)cc2C)c(C)c1 | 54 | 1 | 50 | 580 | 60
Cc1cc(C)c(-n2nnnc2SCC(=O)Nc2ccc([N+](=O)[O-])cc2C)c(C)c1 | 165 | 3 | 1250 | > 5000 | 
O=C(CSc1nnnn1-c1ccc(Cl)c(Cl)c1)Nc1ccccc1[N+](=O)[O-] | 230 | 2 | > 5000 | > 5000 | 
NS(=O)(=O)c1ccc(NC(=O)CSc2nnnn2-c2cc(Cl)ccc2Cl)c(Cl)c1 | 3 | 1 | 16 | 125 | 33
Cc1cc(C)c(-n2nnnc2SCC(=O)Nc2ccccc2Br)c(C)c1 | 7 | 5 | 100 | 810 | 
Cc1ccc(Cl)cc1-n1nnnc1SCC(=O)Nc1ccccc1[N+](=O)[O-] | 23 | 1 | 78 | 1250 | 
Cc1cc(C)c(-n2nnnc2SCC(=O)Nc2ccc(S(N)(=O)=O)cc2Cl)c(C)c1 | 4 | 3 | 16 | 62 | 33
O=C(CSc1nnnn1-c1cc(F)ccc1Cl)Nc1ccccc1[N+](=O)[O-] | 10 | 1 | 63 | 250 | 
